How the values were obtained:
[1] = test system: C57Bl/6J mice, Ang II-induced hypertension; test: Blood pressure in angiotensin II model of hypertension (tail-cuff and telemetry); format: in vivo, mouse
Source text: FIGS. 10A-D show the effect of mito2HOBA on angiotensin II-induced hypertension and accumulation of mitochondrial isoLGs protein adducts. (A) Blood pressure tail-cuff measurements in male Sham or angiotensin II-infused mice supplied with mito2HOBA in drinking water (0.1 g/L) or equimolar amount of untargeted analog 2HOBA (0.17 mmol/L). (B) Telemetry studies of blood pressure in angiotensin II-infused mice supplied with mito2HOBA or plain water as a vehicle. (C) Representative LC/MS/MS chromatograms of isoLG-Lysyl-Lactam adduct; (D) isoLG-Lys-Lactam levels in kidney mitochondria isolated from Sham or angiotensin II-infused mice supplied with mito2HOBA. Results are mean±SEM. *P<0.01 vs Sham, **P<0.01 vs Ang II (n=8).
Hypertension was induced by angiotensin II ([…]) as described previously. To test the therapeutic potential of scavenging of mitochondrial isoLGs, wild-type C57B1/6J male and female mice (Jackson Labs) received saline or angiotensin II minipump placement, and provided with the plain water (vehicle) or mito2HOBA in the drinking water (0.1 g/liter). Blood pressure was monitored by the telemetry and tail-cuff measurements as previously described. The Vanderbilt Institutional Animal Care and Use Committee approved the procedures (Protocol M1700207). Simple randomization was used to select animals for sham, angiotensin II or mito2HOBA groups for equal chance of being allocated to treatment groups.
To test a functional role of mitochondrial isoLGs in hypertension, we used an Ang II model of hypertension, and monitored blood pressure by tail-cuff (FIG. 10A) and telemetry (FIG. 10B). […] Infusion of wild-type C57B1/6J mice with Ang II (0.7 mg/kg/day) increased systolic blood pressure to 162 mm Hg.

[2] = test system: human aortic endothelial cells (HAEC); test: Cardiolipin oxidation in human aortic endothelial cells stimulated with angiotensin II plus TNFα (LC/MS); format: cell-based; conditions: 50 nM
Protocol: (§1) FIGS. 9A and B show the effect of mito2HOBA on mitochondrial superoxide and cardiolipin oxidation in human aortic endothelial cells induced by angiotensin II plus TNFα. (A) Mitochondrial superoxide was measured by HPLC analysis of mitoSOX-superoxide specific product, mito-2-hydroxyethidium (Mito-2OH-Et+). […] (B) Cardiolipin oxidation induced by Angiotensin II+TNFα measured my LC/MS. […] Data are mean±SEM. *P<0.01 vs Control, **P<0.01 vs Angiotensin II+TNFα (n=4).
Cardiolipin oxidation in human aortic endothelial cells was measured by Liquid Chromatography-Mass Spectrometry (LC/MS) as described previously.^44 The extracted lipid fraction was separated online by UPLC using a Waters Acquity UPLC system (Waters Corp., Milford, MA). Mass Spectrometry analysis was performed on a Thermo Quantum Ultra triple quadrupole mass spectrometer (Thermo Scientific Inc., San Jose, CA, USA).
(§2) Human aortic endothelial cells (HAEC) were purchased from Lonza (Chicago, IL) and cultured in EGM-2 medium supplemented with 2% FBS but without antibiotics. On the day before the study, the FBS concentration was reduced to 1%.

[3] = Reaction with the IsoLG analog 4-oxopentanal; format: physicochemical; conditions: % of 2HOBA itself
Source text: In order to confirm the IsoLG scavenging properties of mito2HOBA, the present inventors studied its reaction with the IsoLG analog 4-oxopentanal as the present inventors described previously. Mito2HOBA was highly reactive with 4-oxopentanal with a reaction rate constant that was about 50% of 2HOBA itself (Supplemental FIG. 1S). […] The overall rate of IsoLG scavenging in physiological conditions depends both on the rate constant and the local concentration of the scavenger (V=k*[mito2HOBA]*[IsoLG]). […] This will result in low level of mito2HOBA in cytoplasm but high mitochondrial accumulation leading to specific scavenging of IsoLG in mitochondria (FIG. 3).

[4] = test system: human aortic endothelial cells (HAEC); test: Mitochondrial superoxide in human aortic endothelial cells stimulated with angiotensin II plus TNFα (mitoSOX HPLC); format: cell-based; conditions: 50 nM, angiotensin II plus TNFα for 4-hours
Protocol: as §1, §2
We tested if mito2HOBA reduces mitochondrial oxidative stress in human aortic endothelial cells (HAEC) stimulated with angiotensin II plus TNFα for 4-hours (FIG. 9). Indeed, supplementation of HAEC with mito2HOBA (50 nM) reduced mitochondrial superoxide production stimulated by TNF[…] and Ang II as measured by accumulation of specific superoxide-MitoSOX product, 2-OH-Mito-Ethidium.

[5] = test system: LPS-injected C57BL/6J mice; test: Survival in LPS model of sepsis; format: in vivo, mouse
Source text: All experimental procedures were approved by Vanderbilt and Mercer Institutional Animal Care and Use Committees. The use of LPS is well-established model of bacterial sepsis in rodents (1-3). The concentrations of LPS that can be used to induce sepsis in mice depend on many factors (source of LPS, age/size, and strains of animals, desired time of response, target of interest, etc.) and may vary between different manufactures. To test the protective properties of mito2HOBA, the present inventors used LPS from E. coli O111:B4 (Sigma L8274). […] The same lot of LPS was used throughout entire study.

NCc1ccc(OCCCC[P+](c2ccccc2)(c2ccccc2)c2ccccc2)cc1O [mito2HOBA]
systolic blood pressure ([1]; Ang II 0.7 mg/kg/day, mito2HOBA 0.1 g/L drinking water, tail-cuff and telemetry (Ang II alone 162)): 140 mm Hg | blood pressure in control mice ([1]; mito2HOBA alone, no Ang II): did not affect | cardiolipin oxidation [2]: inhibited | reaction rate constant with 4-oxopentanal relative to 2HOBA [3]: about 50% | mitochondrial superoxide production [4]: reduced | increase of animal survival ([5]; 96 hours post-injection of LPS 25 μg/g, mito2HOBA 0.1 g/L drinking water): 3 fold | reduction of animal immediate and extended mortality ([5]; LPS model of sepsis, mito2HOBA supplementation): 3 fold

From US12564580B2, “Mitochondria-targeted isoketal/isolevuglandin scavengers and uses thereof” (Vanderbilt University, priority 2020, dated 2026)
